From patent US20110027192A1, “SLIM-FIT FAT BURNING WATER” (priority 2008, published 2011)

Experiments:
adults = conditions: 1200 mg for a 60 kg person, 1993 GRAS expert committee; cited from earlier work
[1] = test system: long chain fatty acid oxidation; conditions: oral supplementation, slightly overweight adults; cited from earlier work
[2] = test system: long chain fatty acid oxidation; conditions: oral supplementation, healthy subjects; cited from earlier work
cells (mitochondria) = conditions: cited from earlier work
[3] = Solubility of L-carnitine in water (100-2000 mg per 16 oz); type: physicochemical; conditions: about 100 mg to about 2000 mg per 16 fluid ounces of water
Protocol: A pre-measured amount of L-carnitine was added into water at a final concentration range from about 100 mg to about 2000 mg per 16 fluid ounces (oz) of water.

Row | Structure (SMILES) | amount that can be safely ingested by adults (adults) | long chain fatty acid oxidation [1] | long chain fatty acid oxidation as measured by 13CO2 exhalation [2] | rate at which cells (mitochondria) burned fat (cells (mitochondria)) | solubility in the water [3]
1 | C[N+](C)(C)C[C@H](O)CC(=O)[O-].O=C(O)C(O)C(O)C(=O)O [L-Carnitine L-Tartrate] | 20 mg/kg/day | increased long chain fatty acid oxidation | – | – | –
2 | C[N+](C)(C)C[C@H](O)CC(=O)[O-].O=C([O-])CC(O)(CC(=O)[O-])C(=O)[O-].O=C([O-])CC(O)(CC(=O)[O-])C(=O)[O-].[Mg+2].[Mg+2].[Mg+2] [L-Carnitine Magnesium Citrate] | 20 mg/kg/day | – | – | – | –
3 | C[N+](C)(C)C[C@H](O)CC(=O)[O-] [L-carnitine] | 20 mg/kg/day | – | improved long chain fatty acid oxidation | increased the rate | completely soluble
